Assays:
[1] = test system: GR transactivation, p(GRE)2-50-luc reporter in HaCat cells; assay: p(GRE)2-50-luc reporter gene assay (GR transactivation); type: cell-based; details: 6 h; for GR transactivation in GRE-luc reporter: concentration range 10^−6–10^−10 M
Description: (§1) In order to compare transactivation and transrepression potencies of the different synthesized GSK866 analogs, we performed GRE- and NFκB-luciferase-dependent reporter gene studies in stable transfected cell lines, as previously described ([3], [8]). HaCat cells expressing p(GRE)2 50-Luc and L929sA cells expressing p(GRE)250-Luc or p(NFκB)350-Luc were cultured in DMEM medium with 1% L-glutamine, supplemented with 10% feral bovine serum (FBS), 100 µg/ml streptomycin, and 100 IU/mL penicillin in a humidified 5% CO2 atmosphere. Cells were passaged every 2 days at a dilution of 1:6. Reporter gene cells were plated at a density of 0.5 × 10^5 cells/well in 24 well plates and grown overnight. p(GRE)250-Luc-dependent reporter gene cells were treated with solvent (DMSO) or compound (100 fM, 1 nM, 10 nM, 100 nM, and 1 µM) for 6 h, whereas in case of p(NFκB)350-Luc, TNF (2,500 IU/mL) was added 2 h following compound treatment. After incubation with the compounds, medium was removed and cells were washed twice with PBS followed by adding 100 µl of 1× lysis buffer (0.2 M K2HPO4, 0.2 M KH2PO4, Triton X-100, pH 7.6). 25 µl of lysate was assayed for luciferase activity by adding 50 µl of luciferase assay substrate (1 mM luciferin or luciferin salt, 3 mM ATP, and 15 mM MgSO4 in 30 mM HEPES buffer, pH 7.8) followed by 10 s mixing and measuring 1 s bioluminescence using an Envision multilabel reader (Perkin Elmer).
(§2) Figure 3 Selective glucocorticoid receptor agonist GSK866 analogs UAMC-1217, UAMC-1218 but not UAMC-1158 and UAMC-1159 elicit selective glucocorticoid receptor-transactivation and NFκB-transrepression properties. Glucocorticoid response element (GRE)- and NFκB-luciferase-dependent reporter gene assays were performed in L929sA and HaCat reporter cells which were stably transfected with, respectively, p(NFκB)3-50luc or p(GRE)2-50-luc constructs. For p(GRE)2-50-luc reporter assays, cells were solvent-treated or induced with different concentrations of Dex (A), Dex-mesylate (Dex-Mes) (A), SEGRA GSK866 (C) or analogs UAMC-1158 (D), UAMC-1159 (E), UAMC-1217 (F), and UAMC-1218 (G) as indicated for a total exposure time of 6 h, whereas cells were cotreated for TNF (2,500 IU/ml) in the last 4 h for p(NFkB)3-50luc reporter assays (B–G). Corresponding lysates were assayed for luciferase activities and normalized for protein content as described in the Section “Materials and Methods.” Promoter activities are expressed as relative induction factor (± standard deviation) i.e., the ratio of expression levels recorded either at induced and non-induced conditions, with the latter taken to be 1.

[2] = test system: TNF-induced NFκB reporter gene activity in L929sA cells; assay: p(NFκB)3-50luc reporter gene assay with TNF (NFκB transrepression); type: cell-based; details: TNF 2,500 IU/ml; for NFκB transrepression in NFκB-luc reporter: dose range
Description: as §1, §2

[3] = test system: GR nuclear translocation in A549 cells; assay: Immunofluorescence of nuclear GR translocation in A549 cells; type: cell-based, human; details: serum starved A549 cells, 1 µM, 30 min
Description: To detect endogenous GR in A549 cells, cells were grown in serum free media for 24 h followed by treatment with 1 µM of specific GR ligands. After 30 min of treatment, cells on the cover glass were fixed in 4% formaldehyde in phosphate-buffered saline (PBS), permeabilized with 0.3% Triton X-100–PBS, and then blocked in 5% milk, 10% FCS, 0.3% bovine serum albumin, and 0.3% Triton X-100 in PBS for 30 min at room temperature. Primary antibodies against anti GR-antibody (SantaCruz Biotechnology) were used at a dilution of 1:200. Nuclei were stained by DAPI and samples were analyzed using a confocal Leica LSM410 microscope. To quantify nuclear translocation of GR in a standardized manner, multichannel fluorescence images were analyzed using a script for FIJI image analysis freeware (http://fiji.sc) that is essentially based on a pipeline described before (CellBlocks.ijm) ([39]), and is available upon request. In brief, the analysis first segments nuclei in the Hoechst/DAPI channel and then uses the nuclear mask to define perinuclear cytoplasmic regions of interest (ROIs). Nuclei are detected after local contrast enhancement and Gaussian smoothing to, respectively, cover for spatial illumination heterogeneity and noise. After automatic thresholding (Isodata algorithm), touching nuclei are separated using a conditional watershed algorithm ([40]). Next, cytoplasmic ROIs are determined as concentric bands around the nuclei by Voronoi-restrained region growing ([41]). Finally, the average intensity of the GR channel is measured in both the nuclear and cytoplasmic ROIs and the nuclear-to cytoplasm signal intensity ratio (N/C Ratio) is calculated per cell (Figure S1 in Supplementary Material) ([42]).
Figure 6 Selective glucocorticoid receptor agonist GSK866 analogs UAMC-1217, UAMC-1218, but not UAMC-1158 and UAMC-1159 trigger nuclear glucocorticoid receptor (GR) translocation. (A) Serum starved A549 cells were left solvent treated or treated for 30 min with 1 µM Dex, Dex-mesylate (Dex-Mes), GSK866, UAMC-1158, UAMC-1159, UAMC-1217, or UAMC-1218. GR translocation was evaluated by immunofluorescence whereas nuclei were stained by DAPI dye. Magnification is at 100×. White scalebars represent […]. (B) Automated image quantification of GR translocation of three replicate immunofluorescence images of the different experimental setups.

[4] = test system: GR; set-up: method as in PMID 27612544; details: ref [14], cited from earlier work; for % inhibition of GR ligand binding: 1.5 nM [3H]-dexamethasone, 1 µM ligand; for IC50 / Ki: displacement of radiolabeled Dex; for IC50: read-out: IC50 (GR radioligand binding); for Ki: read-out: Ki (GR radioligand binding); for displacement of radiolabeled Dex: cell-based ligand-binding competition assay
[5] = test system: GR Ser211 phosphorylation; assay: Western blot of GR Ser211 phosphorylation; type: cell-based; details: 1 µM, 6 h (UAMC-1158: Figure S2, 4 or 24 h)
Description: Whole cell extracts contain multiple protease inhibitors (Complete Mini®, Roche) and Halt phosphatase inhibitor cocktail (Thermoscientific). Soluble protein extracts were obtained after three times freeze and thaw cycles and centrifugation at […] for 15 min at 4°C. Samples were separated by sodium dodecyl sulfate-polyacrylamidegel electrophoresis (SDS-PAGE) and transferred onto nitrocellulose membranes (Hybond C, Amersham) following standard protocols. After blocking, membranes were incubated overnight at 4°C with the primary antibodies: anti-GR (sc-8992, SantaCruz Biotechnology), anti-phospho-GR Ser211 (4161, Cell Signalling) and anti-Actin (A3853, Sigma-Aldrich) followed by dye-conjugated secondary antibodies (LI-COR® Biosciences). Bound complexes were detected with the Odyssey® infrared imaging system (LI-COR®) and quantified by Image J software.
Figure 5 Selective glucocorticoid receptor agonist GSK866 and its analogs UAMC-1217, UAMC-1218 trigger glucocorticoid receptor (GR) Ser211 phosphorylation. (A) Western detection of expression levels of Actin, GR, and GR Ser S211 phosphorylation in HaCat cells following 6 h treatment with 1 µM Dex, UAMC-1217, UAMC-1218, or GSK866. (B) Bar plot representation of Western blot intensities of Actin, GR, and GR Ser S211 phosphorylation observed in panel A, as quantified by Image J. (C) Western detection of expression levels of Actin, GR expression, and Ser S211 phosphorylation in HaCat cells following 6 h treatment with, respectively, 10, 100, or 1,000 nM Dex or UAMC-1217. (D) Bar plot representation of Western blot intensities of Actin, GR, and GR Ser S211 phosphorylation observed in panel (C), as quantified by free Image J software.

[6] = test system: GR; assay: Cell-based GR ligand-binding competition assay with [3H]-dexamethasone; details: from IC50 values of ligand displacement assays; ref [14]
[7] = test system: recombinant GR-LBD (hGR); assay: Mass spectrometry of tryptic peptides of recombinant GR-LBD after ligand incubation (covalent binding); set-up: species or system human; details: 2 h at 37°C, trypsin digestion, LC-MS/MS
Description: Recombinant His6-MBP-mCaspase3 site-LBD-hGR was expressed in the Escherichia coli strain BL21codon + pICA2 that was transformed with the corresponding pLHM36LBD-hGR plasmid and in which expression was induced by Isopropyl β-D-1-thiogalactopyranoside (IPTG) under control of a pL-promotor. The transformed bacteria were grown in Luria Bertani medium supplemented with ampicillin (100 µg/ml) and kanamycin (50 µg/ml) overnight at 28°C before 1/100 inoculation in 12 × 0.5 l provided with Luria Bertani medium supplemented with ampicillin (100 µg/ml) and 1% glycerol in a shaker incubator. The cells were grown to an optical density at AU 600 nm of 0.65, transferred to 20°C and expression was induced by addition of 1 mM IPTG overnight. Cells were then harvested and frozen at −20°C. […] After thawing, the cells were re-suspended at 3 ml/g in cold 20 mM Tris-HCl pH 7.4, 200 mM NaCl, 1 mM EDTA, 1 tablet complete protease inhibitor cocktail from Roche/50 ml, and 10 mM β-mercaptoethanol. The cytoplasmic fraction was prepared by sonication of the cells on ice and isolated by centrifugation at 18,000 × g for 30 min. All further purification steps were conducted at 4°C. The clear supernatant was applied to an amylase column (BioLabs, XK26 × 20, 100 ml), equilibrated with 20 mM Tris–HCl pH 7.4, 200 mM NaCl, 1 mM EDTA, and 10 mM β-mercaptoethanol. The column was eluted with 20 mM Tris–HCl pH 7.4, 200 mM NaCl, 1 mM EDTA, 10 mM maltose, and 10 mM β-mercaptoethanol. […] Recombinant purified His-MBP-DEVD-GR-LBD fusion protein was dissolved at a concentration of 1 mg in 1.7 ml PBS buffer.
Each aliquot was incubated 2 h at 37°C. […] 120 µl of each sample was loaded onto a spin column and the flow-through was collected (1,500 × g, 2 min). Trypsin (5 µl of 20 mM stock solution) was added, and the samples were incubated 20 h at 37°C. Then, 0.1% FA (formic acid) (41.5 µl) and 20 mM TCEP in 0.1% FA (18.5 µl, 5.7 mg TCEP/ml) were added [final volume = 185 µl, final concentration TCEP = 2 mM, 1 µg material/2.5 μl], and the samples were subjected to LC–MS/MS analysis.
The obtained peptide mixtures were introduced onto an LC–MS/MS system; the Ultimate 3000 RSLC nano (Dionex, Amsterdam, The Netherlands) in-line connected to an LTQ-Orbitrap Velos (Thermo Fisher Scientific, Bremen, Germany). The sample mixture was loaded on a trapping column [made in-house, 100 µm internal diameter (I.D.) × 20 mm, 5 µm C18 beads (Reprosil-HD, Dr. Maisch)]. After back flushing from the trapping column, the sample was loaded on a reverse-phase column [made in-house, 75 µm I.D. × 150 mm, 5 µm C18 beads (Reprosil-HD, Dr. Maisch)].
The mass spectrometer was operated in data-dependent mode, automatically switching between MS and MS/MS acquisition for the 10 most abundant peaks in a given MS spectrum. […]

Modifications: GR-LBD cysteine-containing peptide covalently bound [7]	Modifications: GR-LBD cysteine-containing peptide covalently bound ([7]; listed as 1218)	Compound	GR transactivation in GRE-luc reporter [1]	inhibition of TNF-induced NFκB reporter gene activity ([2]; 10 nM compound)	nuclear GR translocation [3]	% inhibition of GR ligand binding [4] [%]	IC50 [4] [nM]	Ki [4] [nM]	GR transactivation in GRE-luc reporter at 10 nM [1]	NFκB transrepression in NFκB-luc reporter [2]	GR Ser211 phosphorylation [5]	displacement of radiolabeled Dex [4]	fold lower GR-LBD affinity versus GSK866 [6]	inhibition at 0.01 µM ([2]; L929sA, 10 nM compound) [%]
		C[C@@H]1C[C@H]2[C@@H]3CCC4=CC(=O)C=C[C@]4(C)[C@@]3(F)[C@@H](O)C[C@]2(C)[C@@]1(O)C(=O)COS(C)(=O)=O [Dex-Mes, dexamethasone-21-mesylate, reference compound]	weaker dose-dependent GR-dependent transactivation than Dex	40–45%	induce (partial) translocation of GR from the cytosol to the nucleus	99	7.3	3.7						
		CCN(C[C@@](O)(CNC(=O)c1cnn(-c2ccc(F)cc2)c1N)C(F)(F)F)C(=O)c1c(Cl)cccc1Cl [GSK866]	strong GR agonistic activities		induce (partial) translocation of GR from the cytosol to the nucleus	100	4.6	2.3	significant GR transactivation	dose-dependent NFκB-transrepression effects	enhance the Ser211 phosphorylation			
		CCN(C[C@@](O)(CNC(=O)c1cnn(-c2ccc(F)cc2)c1N)C(F)(F)F)C(=O)CCN1C(=O)C=CC1=O [UAMC-1158]	completely fail to elicit any GR transactivation at any dose tested		completely ineffective	−2				completely ineffective	failed to show any change in GR phosphorylation status	failed to show displacement of radiolabeled Dex		
		CCN(CC(O)(CNC(=O)c1cnn(-c2ccc(F)cc2)c1N)C(F)(F)F)C(=O)C1CCCN1C(=O)CCl (stereo not drawn) [UAMC-1159]	completely fail to elicit any GR transactivation at any dose tested		completely ineffective	−12				completely ineffective		failed to show displacement of radiolabeled Dex		
Cys-622	Peptide 615–633 → C622	C=CC(=O)Nc1ccc(Cl)c(C(=O)N(CC)C[C@@](O)(CNC(=O)c2cnn(-c3ccc(F)cc3)c2N)C(F)(F)F)c1Cl [UAMC-1218]			induce (partial) translocation of GR from the cytosol to the nucleus	96	34	17	significantly reduced GR transactivation to levels below transactivation observed with 10 nM of Dex	dose-dependent NFκB-transrepression effects	enhance the Ser211 phosphorylation		approx. 5 fold	~95

Reference: paper PMC5672024, “Selective Glucocorticoid Receptor Properties of GSK866 Analogs with Cysteine Reactive Warheads” (Frontiers in Immunology, 2017)
